From US20070203215A1, “Methods & Compositions For Enhancing Pharmaceutical Treatments” (Taiji Biomedical, Inc., priority 1999, published 2007) come the findings set out here.

Read-outs that look alike come from different tables or passages of the source.

Data set [1] has as its system 15 non-transformed and transformed cell lines. As to the kind of experiment: Proliferation assays, 15 non-transformed and transformed cell lines (panel statements). It is filed as cell-based, human. Conditions: for IC50: Homo sapiens, 15 cell lines. As for the experimental part:
(§1) Cell proliferation IC50s and MDR reversal EC50s were determined from 3-day dose-response curves carried out in triplicate in 96-well plates essentially as described by Monks et al. (J. Natl. Cancer Inst., 83:757-66, 1991). Cells were plated in standard growth medium at 2.5 or 5.0×10^4 per well (CCRF-CEM and CEM/VLB1000 respectively) or 5×10^3 per well (all other cell lines) in a final volume of 100 μl. After a 2 h incubation for non-adherent cells and overnight incubation for adherent cells, the initial cell density was determined by fluorescence readout of Alamar Blue metabolism. The compound of Formula 2, cytotoxic agents, or compound vehicles were added to duplicate plates and the incubation was continued for an additional 72 h. Final cell density was determined with Alamar Blue. In some experiments, a standard endpoint assay was used without analysis of initial cell density with Alamar Blue. Similar results were obtained with the two assays. EC50s were derived by nonlinear regression analysis assuming a sigmoidal dose-response using GraphPad Prism Software (San Diego, Calif.). Proliferation assays capable of measuring both cytostatic and cytotoxic responses were carried out as described herein with 15 non-transformed and transformed cell lines, including primary fibroblasts, non-transformed smooth muscle, leukemia, breast, colon, ovarian and uterine carcinoma cells (±P-gp expression). Although the compound of Formula 2 reversed P-gp-mediated MDR in the low nanomolar concentration range, the compound was non-cytotoxic by itself at doses up to 100 μM in all cell lines. […] IC50s for non-specific cytotoxicity were similar in matched cell lines plus and minus P-gp expression. […] If it were, some consistent degree of resistance would be expected in P-gp expressing cells.

In another data set the test system is MDA/LCC6 cells. As to the kind of experiment: Effect on paclitaxel IC50 in non-P-gp-expressing cells. The class given is cell-based, human. The conditions noted are these: breast carcinoma cells that do not express P-gp, FIG. 1. As for the experimental part: The compound of Formula 2 was able to reverse resistance to all classes of P-gp substrates in a wide variety of tumor cell types with EC50s in the low nM range (Table 2). Similar results were obtained with etoposide in several models. Complete reversal of MDR was typically seen with Formula 2 doses between 0.25 and 1.0 μM. Examples with cells expressing extremely high levels of P-gp as a result of drug selection (CEM/VLB1000), moderate levels of P-gp from gene transduction (MDA/LCC6 ^MDR1), and low (intrinsic) levels of P-gp (HCT-15) are illustrated in Table 2. The compound of Formula 2 had no effect on doxorubicin or paclitaxel IC50s in non-P-gp-expressing CCRF-CEM and MDA/LCC6 cells, respectively (FIG. 1, for MDA/LCC6 cells).
Cell proliferation IC50s and MDR reversal EC50s were determined from 3-day dose-response curves carried out in triplicate in 96-well plates essentially as described by Monks et al. (J. Natl. Cancer Inst., 83:757-66, 1991). Cells were plated in standard growth medium at 2.5 or 5.0×10^4 per well (CCRF-CEM and CEM/VLB1000 respectively) or 5×10^3 per well (all other cell lines) in a final volume of 100 μl. After a 2 h incubation for non-adherent cells and overnight incubation for adherent cells, the initial cell density was determined by fluorescence readout of Alamar Blue metabolism. […] Final cell density was determined with Alamar Blue. […]

For the next data set, the system named is HCT-15. As to the kind of experiment: Reversal of MDR in P-gp-expressing cell line. The conditions noted are these: Homo sapiens; HCT-15 colorectal carcinoma; read-out: Formula 2 compound EC50, reversal of Paclitaxel resistance. It is filed as cell-based. The method, then: as §1
A further data set concerns SK/VLB1000. As to the kind of experiment: Reversal of MDR in P-gp-expressing cell line. It is filed as cell-based. Conditions: Homo sapiens, SK/VLB1000 ovarian. As for the experimental part: as §1
The next data set deals with MCF-7/ADR. Put plainly: Reversal of MDR in P-gp-expressing cell line. The class given is cell-based. Conditions: Homo sapiens, NCI/ADR-RES, MCF-7/ADR breast, ± SD. The method, then: as §1
The subject of the next data set is CEM/VLB1000. As to the kind of experiment: Reversal of MDR in P-gp-expressing cell line. The class given is cell-based. Conditions: Homo sapiens, CEM/VLB1000 lymphoma, ± SD. The method, then:
as §1

The next data set relates to MES-SA/DX5. Put plainly: Reversal of MDR in P-gp-expressing cell line. It is filed as cell-based. Conditions: Homo sapiens, MES-SA/DX5 uterine, ± SD. The method, then: as §1
The target of another data set is CYP2C8 (Homo sapiens, UniProt P10632). Put plainly: Metabolism by P450 CYP2C8. The class given is in vitro ADME. The source says:
(§2) Two enzymes primarily responsible for metabolism of paclitaxel are P450 CYP3A4 and CYP2C8. Some P-gp inhibitors are also metabolized by P450 CYP 3A4, leading to inhibition of paclitaxel metabolism. This may contribute to PK interactions with paclitaxel.

The subject of data set [2] is MDA/LCC6 human breast carcinoma xenografts. Put plainly: In vivo antitumor efficacy, non-P-gp-expressing MDA/LCC6 xenografts. The arrangement: species or system SCID mice. The conditions noted are these: non-P-gp expressing tumor cells, FIG. 2. The method, then:
Anti-tumor efficacy experiments with orthotopic MDA/LCC6 and MDA/LCC6^MDR1 tumors were conducted in female SCID/RAG2 mice. Ascites propagated cells (2×10^6 in 50 μl) were injected into mammary fat pads bilaterally on day 0 before randomization into groups of 5 mice per group. Paclitaxel (12 mg/kg/dose) was administered QD i.v. (tail vein) in 200 μl saline/Cremophor/ethanol (8/1/1 by volume) on days 5, 12, 19, and 26. The compound of Formula 2-free base (30 mg/kg/dose) was administered BID p.o. by gavage in 100 μl PEG 400/Tween 20 (9/1 by volume) on days 4-6, 11-13, 18-20, and 25-27. Mean body weights were recorded at least every other day. Tumor weight was monitored approximately every other day by caliper measurements and calculated according to the formula (Tumor weight =(length×width^2)÷2). This conversion formula was verified by comparing the calculation derived tumor weights to excised and weighed tumors. Animals bearing ulcerated tumors or where tumor weight exceeded 10% of the animal's body weight were terminated. The weights of the bilateral tumors were averaged for each mouse and mean tumor weights for each treatment group±standard error of the mean were calculated. Statistical analysis was carried out by Mann-Whitney test using GraphPad Prism software (San Diego, Calif.).

Another data set concerns the target human CYP3A4 (Homo sapiens, UniProt P08684). Put plainly: Inhibition of CYP3A4-mediated paclitaxel metabolism. It is filed as in vitro ADME.
Description: as §2

[3] abbreviates: read-out: Formula 2 compound EC50, reversal of Paclitaxel resistance.
Where [4] appears, read: read-out: Formula 2 compound EC50, reversal of Vinblastine resistance.
Setting [5] is: read-out: Formula 2 compound EC50, reversal of Doxorubicin resistance.

human CYP3A4, sequence (P08684 whole entry): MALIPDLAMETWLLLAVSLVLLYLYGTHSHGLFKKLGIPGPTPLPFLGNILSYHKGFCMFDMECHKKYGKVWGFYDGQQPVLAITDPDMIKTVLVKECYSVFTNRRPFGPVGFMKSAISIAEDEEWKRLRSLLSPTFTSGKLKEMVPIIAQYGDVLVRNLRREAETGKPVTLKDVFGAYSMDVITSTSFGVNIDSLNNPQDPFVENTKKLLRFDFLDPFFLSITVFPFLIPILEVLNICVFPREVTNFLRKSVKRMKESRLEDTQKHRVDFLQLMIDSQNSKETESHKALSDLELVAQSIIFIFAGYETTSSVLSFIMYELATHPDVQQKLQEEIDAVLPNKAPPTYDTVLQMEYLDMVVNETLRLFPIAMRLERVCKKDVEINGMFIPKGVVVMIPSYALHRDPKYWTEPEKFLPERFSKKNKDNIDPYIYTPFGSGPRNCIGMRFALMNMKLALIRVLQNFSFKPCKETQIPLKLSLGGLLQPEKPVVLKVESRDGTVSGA
CYP2C8, sequence (P10632 whole entry): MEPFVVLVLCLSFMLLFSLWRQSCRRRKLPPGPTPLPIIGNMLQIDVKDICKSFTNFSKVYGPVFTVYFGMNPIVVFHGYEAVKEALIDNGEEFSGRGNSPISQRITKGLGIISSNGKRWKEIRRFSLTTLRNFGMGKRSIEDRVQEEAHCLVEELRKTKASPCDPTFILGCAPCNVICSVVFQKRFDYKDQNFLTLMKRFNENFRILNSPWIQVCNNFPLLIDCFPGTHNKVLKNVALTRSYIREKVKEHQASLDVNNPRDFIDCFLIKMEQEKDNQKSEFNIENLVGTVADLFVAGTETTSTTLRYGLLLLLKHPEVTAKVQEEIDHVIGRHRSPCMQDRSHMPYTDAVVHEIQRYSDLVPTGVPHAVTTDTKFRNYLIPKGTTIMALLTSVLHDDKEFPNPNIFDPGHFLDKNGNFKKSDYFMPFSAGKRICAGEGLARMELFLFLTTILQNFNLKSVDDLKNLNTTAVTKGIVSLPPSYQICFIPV

Usually EC50 stands for the midpoint of the concentration-response curve. A word on the Ki: it is a measure of affinity in units of concentration, obtained from inhibition or displacement. On to `CCOC/C=C/c1ccc(-c2nc(-c3ccc(NC(C)C)cc3)c(-c3ccc(NC(C)C)cc3)[nH]2)cc1` [Formula 2 compound], for which the IC50 in data set [1] (read-out: Cytostatic IC50, average value) was 60000 nM; in data set [1] (read-out: Cytostatic IC50s, range over cell lines), 6000 to 170000 nM. Also, the Cytotoxicity by itself result in data set [1] (at doses up to 100 μM, all cell lines) is “non-cytotoxic”. The “In vitro anti-tumor activity of paclitaxel” value in the data set with MDA/LCC6 cells is “did not enhance”. In addition, the EC50 with HCT-15 turned out to be 1.6 nM; in the data set on SK/VLB1000 (setting [3]) it was 33 nM; in the data set with SK/VLB1000 (setting [4]), 15 nM; with SK/VLB1000 (± SD, read-out: Formula 2 compound EC50, reversal of Doxorubicin resistance) it was 25 ± 8 nM; with MCF-7/ADR (setting [5]) it was 38 ± 6 nM; in the data set with MCF-7/ADR (setting [3]), 31 ± 4 nM. Also, the EC50 with MCF-7/ADR (setting [4]) came to 20 ± 10 nM; in the data set on CEM/VLB1000 (setting [5]), 90 ± 60 nM; in the data set on CEM/VLB1000 (setting [4]) it was 70 ± 10 nM; in the data set with MES-SA/DX5 (setting [5]), 24 ± 6 nM; in the data set on MES-SA/DX5 (setting [3]) it was 27 ± 7 nM; with MES-SA/DX5 (setting [4]), 34 ± 7 nM. In addition, at CYP2C8, the “Metabolism by P450 CYP2C8” value is “not metabolized”. For the same compound, in [2], the “In vivo anti-tumor activity of paclitaxel” value is given as “did enhance”. At human CYP3A4, this compound had an inhibition constant Ki of 39800 ± 5100 nM. Further, the “Ki (CYP3A4) relative to EC50s for reversal of MDR” value on human CYP3A4 (higher) was “approximately 1000 fold”.
